The record followed here is ChEMBL document CHEMBL2434900, “Synthesis of novel benzo[4,5]thiazolo[1,2-a]pyrimidine-3-carboxylate derivatives and biological evaluation as potential anticancer agents” (Eur J Med Chem, 2013).

A word on the IC50: it is the point on the concentration scale where inhibition reaches its midpoint.

Format in all cases: functional, cell-based
For one assay, the system named is MCF7. Put plainly: Cytotoxicity against human MCF7 cells by MTT assay. On the technique in general: Tetrazolium dyes change colour on reduction, which living cells bring about.
A further assay concerns MDA-MB-231. Put plainly: Cytotoxicity against human MDA-MB-231 cells by MTT assay.
The subject of another assay is A549. The assay can be described thus: Cytotoxicity against human A549 cells by MTT assay.
The next assay concerns HeLa. Put plainly: Cytotoxicity against human HeLa cells by MTT assay.

For `CC1=C(C(=O)N2CCN(c3ccc([N+](=O)[O-])cc3)CC2)C(c2ccccc2)N2C(=N1)Sc1ccccc12` (centres undefined), the IC50 with MCF7 is 29 µM; with MDA-MB-231 it was 47.2 µM.

`CC1=C(C(=O)N2CCN(C)CC2)C(c2ccccc2)N2C(=N1)Sc1ccccc12` (centres undefined): the IC50 came out at 0.58 µM with MCF7 and 1.58 µM in the assay on MDA-MB-231.

On to `CC1=C(C(=O)N2CCCCC2)C(c2ccccc2)N2C(=N1)Sc1ccccc12` (centres undefined), for which the IC50 was determined as 11.7 µM in the assay on MCF7 and 5.01 µM in the assay on MDA-MB-231.

Turning to `CC1=C(C(=O)NCCC(=O)N2CCCCC2)C(c2ccccc2)N2C(=N1)Sc1ccccc12` (centres undefined), the IC50 stood at 18.1 µM in the assay with A549, 16.8 µM with MCF7, 21.7 µM with MDA-MB-231 and 11.4 µM in the assay with HeLa.

On to `CC1=C(C(=O)NCCC(=O)N2CCN(c3ccc([N+](=O)[O-])cc3)CC2)C(c2ccccc2)N2C(=N1)Sc1ccccc12` (centres undefined), for which the concentration for half-maximal inhibition (IC50) was 11.2 µM with A549, 13.8 µM with MCF7 and 25.7 µM in the assay on HeLa.

As for `COc1cccc2c1C(=O)c1c(O)c3c(c(O)c1C2=O)C[C@@](O)(C(=O)CO)C[C@@H]3O[C@H]1C[C@H](N)[C@H](O)[C@H](C)O1` [DOXORUBICIN], the IC50 in the assay on MCF7 was 1.05 µM; in the assay on MDA-MB-231, 0.501 µM.

In the case of `CC1=C(C(=O)N2CCOCC2)C(c2ccccc2)N2C(=N1)Sc1ccccc12` (centres undefined), the IC50 in the assay on MCF7 was determined as 10.1 µM; in the assay on MDA-MB-231, 11.1 µM.

On to `CC1=C(C(=O)N2CCN(c3ccccc3)CC2)C(c2ccccc2)N2C(=N1)Sc1ccccc12` (centres undefined), for which the IC50 with MCF7 worked out at 77.6 µM; with MDA-MB-231, 31.6 µM.
